Experimental data from paper PMC12396409, “Screening and hit evaluation of a microbial metabolite library against the pathogenic Plasmodium falciparum and Toxoplasma gondii parasites” (International Journal for Parasitology: Drugs and Drug …, 2025).
Where two headings read alike, the source gives them in different places.

Experiments:
[1] = system: P. falciparum 3D7 parasites; assay: P. falciparum growth inhibition assay, 1-cycle (72 h treatment), SYBR DNA staining (library screen at 2 μg/mL and dose-response); format: cell-based, Plasmodium falciparum; details: for activity at 2 µg/mL: Plasmodium falciparum
[2] = system: P. falciparum 3D7 parasites; assay: P. falciparum growth inhibition assay, 2-cycle (120 h treatment), delayed-death screen and dose-response; format: cell-based, Plasmodium falciparum; details: for activity at 2 µg/mL: Plasmodium falciparum
[3] = system: T. gondii RH strain (RH-Tub-eYFP) tachyzoites; assay: microbe, parasite or virus in culture; format: cell-based, Toxoplasma gondii; details: 72 h; for percent parasite growth at 2 µg/mL: Toxoplasma gondii
[4] = library screen at 2 μg/mL, 72 h, % growth, replicate 1
[5] = library screen at 2 μg/mL, 72 h, % growth, replicate 2
[6] = library screen at 2 μg/mL, 120 h, % growth, replicate 1
[7] = library screen at 2 μg/mL, 120 h, % growth, replicate 2
[8] = library screen at 2 μg/mL, % growth, replicate 1
[9] = library screen at 2 μg/mL, % growth, replicate 2
[10] = P. falciparum 3D7, 72 h, library screen at 2 μg/mL, % growth, replicate 1
[11] = P. falciparum 3D7, 72 h, library screen at 2 μg/mL, % growth, replicate 2
[12] = P. falciparum 3D7, 120 h, library screen at 2 μg/mL, % growth, replicate 1
[13] = P. falciparum 3D7, 120 h, library screen at 2 μg/mL, % growth, replicate 2
[14] = T. gondii RH, library screen at 2 μg/mL, % growth, replicate 1
[15] = T. gondii RH, library screen at 2 μg/mL, % growth, replicate 2

`CC(=O)O[C@H]1C[C@]2(C)[C@H]3CC[C@]4(C)Oc5oc(C)cc(=O)c5C[C@H]4[C@]3(C)CC[C@H]2C(C)(C)[C@H]1OC(C)=O` [Sartorypyrone B] was tested, and the Pf_72h_%Growth_Rep1 ([1]; P. falciparum, 72 h, parasite screen 2 μg/mL, % growth, replicate 1) was 77.80%, the Pf_72h_%Growth_Rep2 ([1]; P. falciparum, 72 h, parasite screen 2 μg/mL, % growth, replicate 2) was 111.47% and the Pf_120h_%Growth_Rep1 ([2]; P. falciparum, 120 h, parasite screen 2 μg/mL, % growth, replicate 1) was 68.83%. It also gave a Pf_120h_%Growth_Rep2 ([2]; P. falciparum, 120 h, parasite screen 2 μg/mL, % growth, replicate 2) of 125.68%, a Tg_72h_%Growth_Rep1 ([3]; T. gondii, parasite screen 2 μg/mL, % growth, replicate 1) of 114.72% and a Tg_72h_%Growth_Rep2 ([3]; T. gondii, parasite screen 2 μg/mL, % growth, replicate 2) of 87.54%.
In the case of `CN(C)[C@H]1C(O)=C(C(N)=O)C(=O)[C@@]2(O)C(O)=C3C(=O)c4c(O)ccc(Cl)c4[C@@](C)(O)[C@H]3C[C@@H]12.Cl` [Epichlortetracycline hydrochloride], the Pf_72h_%Growth_Rep1 [1, 4] is reported as 82.03%, the Pf_72h_%Growth_Rep2 [1, 5] is reported as 85.38% and the Pf_120h_%Growth_Rep1 [2, 6] is reported as 77.41%. It also gave a Pf_120h_%Growth_Rep2 [2, 7] of 79.95%, a Tg_72h_%Growth_Rep1 [3, 8] of 92.54% and a Tg_72h_%Growth_Rep2 [3, 9] of 103.55%.
`Cc1c2c(c(O)c3c(O)ccc(Cl)c13)C(=O)C1(O)C(O)=C(C(N)=O)C(=O)C(N(C)C)C1C2.Cl` (stereo not drawn) showed a Pf_72h_%Growth_Rep1 [1, 4] of 85.99%, a Pf_72h_%Growth_Rep2 [1, 5] of 99.34% and a Pf_120h_%Growth_Rep1 [2, 6] of 95.25%. The Pf_120h_%Growth_Rep2 [2, 7] was 115.61%, the Tg_72h_%Growth_Rep1 [3, 8] was 119.39% and the Tg_72h_%Growth_Rep2 [3, 9] was 96.29%.
With `Oc1cccc2nc3ccccc3nc12` [BIA-H1520] the Pf_72h_%Growth_Rep1 [1, 10] was 84.93%, the Pf_72h_%Growth_Rep2 [1, 11] was 98.32% and the Pf_120h_%Growth_Rep1 [2, 12] was 70.83%. The Pf_120h_%Growth_Rep2 [2, 13] was 82.39%, the Tg_72h_%Growth_Rep1 [3, 14] was 90.90% and the Tg_72h_%Growth_Rep2 [3, 15] was 78.11%.
For `CN(C)[C@@H]1C(O)=C(C(N)=O)C(=O)[C@@]2(O)C(O)=C3C(=O)c4c(O)ccc(Cl)c4[C@@H](O)[C@H]3C[C@@H]12` [Demeclocycline], the activity at 2 µg/mL ([1]; 3D7, 72 h, P. falciparum, 72 h, screen at 2 μg/mL, replicate 1, read-out: Pf_72h_%Growth_Rep1) was 85.8%, the activity at 2 µg/mL ([1]; 3D7, 72 h, P. falciparum, 72 h, screen at 2 μg/mL, replicate 2, read-out: Pf_72h_%Growth_Rep2) was 87% and the activity at 2 µg/mL ([2]; 3D7, 120 h, P. falciparum, 120 h, screen at 2 μg/mL, replicate 1, read-out: Pf_120h_%Growth_Rep1) was 101%. It also gave an activity at 2 µg/mL ([2]; 3D7, 120 h, P. falciparum, 120 h, screen at 2 μg/mL, replicate 2, read-out: Pf_120h_%Growth_Rep2) of 94.8%, a percent parasite growth at 2 µg/mL ([3]; T. gondii, screen at 2 μg/mL, replicate 1, read-out: Tg_72h_%Growth_Rep1) of 157% and a percent parasite growth at 2 µg/mL ([3]; T. gondii, screen at 2 μg/mL, replicate 2, read-out: Tg_72h_%Growth_Rep2) of 107%.
In the case of `O=c1cccc2n1C[C@H]1C[C@@H]2CN2CCCC[C@H]12` [Anagyrine], the activity at 2 µg/mL ([1]; 3D7, 72 h, library screen at 2 μg/mL, 72 h, % growth, replicate 1, read-out: Pf_72h_%Growth_Rep1) is reported as 88.8%, the activity at 2 µg/mL ([1]; 3D7, 72 h, library screen at 2 μg/mL, 72 h, % growth, replicate 2, read-out: Pf_72h_%Growth_Rep2) is reported as 124% and the activity at 2 µg/mL ([2]; 3D7, 120 h, library screen at 2 μg/mL, 120 h, % growth, replicate 1, read-out: Pf_120h_%Growth_Rep1) is reported as 106%. For the same compound, the activity at 2 µg/mL ([2]; 3D7, 120 h, library screen at 2 μg/mL, 120 h, % growth, replicate 2, read-out: Pf_120h_%Growth_Rep2) was 103%, the percent parasite growth at 2 µg/mL ([3]; library screen at 2 μg/mL, % growth, replicate 1, read-out: Tg_72h_%Growth_Rep1) was 136% and the percent parasite growth at 2 µg/mL ([3]; library screen at 2 μg/mL, % growth, replicate 2, read-out: Tg_72h_%Growth_Rep2) was 82.1%.
In the case of `COc1cc(C)c2c(OC)cc(=O)oc2c1-c1c(OC)cc(C)c2c(OC)cc(=O)oc12` [BIA-K1634], the Pf_72h_%Growth_Rep1 [1, 10] is reported as 79.71%, the Pf_72h_%Growth_Rep2 [1, 11] is reported as 89.27% and the Pf_120h_%Growth_Rep1 [2, 12] is reported as 81.50%. For the same compound, the Pf_120h_%Growth_Rep2 [2, 13] was 124.49%, the Tg_72h_%Growth_Rep1 [3, 14] was 128.61% and the Tg_72h_%Growth_Rep2 [3, 15] was 101.38%.
With `Cc1cc(O)c2c(c1)O[C@@]1(C)CC[C@H]3C(C)(C)CCC[C@]34CO[C@@H]2[C@H]41` [Siccanin] the activity at 2 µg/mL ([1]; 3D7, P. falciparum, 72 h, parasite screen 2 μg/mL, % growth, replicate 1, read-out: Pf_72h_%Growth_Rep1) was 76%, the activity at 2 µg/mL ([1]; 3D7, P. falciparum, 72 h, parasite screen 2 μg/mL, % growth, replicate 2, read-out: Pf_72h_%Growth_Rep2) was 49.5% and the activity at 2 µg/mL ([2]; 3D7, P. falciparum, 120 h, parasite screen 2 μg/mL, % growth, replicate 1, read-out: Pf_120h_%Growth_Rep1) was 73%. For the same compound, the activity at 2 µg/mL ([2]; 3D7, P. falciparum, 120 h, parasite screen 2 μg/mL, % growth, replicate 2, read-out: Pf_120h_%Growth_Rep2) was 114%, the percent parasite growth at 2 µg/mL ([3]; T. gondii, parasite screen 2 μg/mL, % growth, replicate 1, read-out: Tg_72h_%Growth_Rep1) was 99.3% and the percent parasite growth at 2 µg/mL ([3]; T. gondii, parasite screen 2 μg/mL, % growth, replicate 2, read-out: Tg_72h_%Growth_Rep2) was 83.6%.
With `CC(C)=CC1CC(C)C2(CCC3(C)CC4C(C(=O)CC4(C)O)C(C=O)=CCC32)O1` (stereo not drawn) [BIA-O1063] the Pf_72h_%Growth_Rep1 ([1]; P. falciparum 3D7, 72 h, parasite screen at 2 μg/mL, % growth, replicate 1) was 4.64%, the Pf_72h_%Growth_Rep2 ([1]; P. falciparum 3D7, 72 h, parasite screen at 2 μg/mL, % growth, replicate 2) was 5.89% and the Pf_120h_%Growth_Rep1 ([2]; P. falciparum 3D7, 120 h, parasite screen at 2 μg/mL, % growth, replicate 1) was 10.48%. The Pf_120h_%Growth_Rep2 ([2]; P. falciparum 3D7, 120 h, parasite screen at 2 μg/mL, % growth, replicate 2) was 11.00%, the Tg_72h_%Growth_Rep1 ([3]; T. gondii, parasite screen at 2 μg/mL, % growth, replicate 1) was 5.87% and the Tg_72h_%Growth_Rep2 ([3]; T. gondii, parasite screen at 2 μg/mL, % growth, replicate 2) was 0.78%.
